The structures appear in SMILES notation. ≈ marks a conversion by molar mass, not a printed value.

As a reminder, the MIC is the least concentration at which growth counts as inhibited. The low end stands for greater potency, the high end for weaker potency. As usually defined, the pKa is the negative logarithm of the acid dissociation constant.

One series relates to Escherichia coli. Put plainly: Antibacterial activity against Escherichia coli JM109 after 24 hrs by microbroth dilution method. It is filed as functional. Conditions: JM109, 24 h. For orientation: Broth dilution looks for growth in wells or tubes with falling amounts of substance.
The next series deals with Bacillus. Briefly: Antibacterial activity against Bacillus proteus ATCC 13315 after 24 hrs by microbroth dilution method. It is filed as functional. Conditions: ATCC 13315, 24 h.
The subject of another series is Pseudomonas aeruginosa. Put plainly: Antibacterial activity against Pseudomonas aeruginosa ATCC 27853 after 24 hrs by microbroth dilution method. It is filed as functional. Conditions: ATCC 27853, 24 h.
A further series relates to Salmonella enterica. Briefly: Antibacterial activity against Salmonella enterica ATCC 14028 after 24 hrs by microbroth dilution method. It is filed as functional. Conditions: ATCC 14028, 24 h.
Series [1] relates to Staphylococcus aureus. Briefly: Antibacterial activity against methicillin-resistant Staphylococcus aureus N315 after 24 hrs by microbroth dilution method. Type of series: functional. Conditions: N315, 24 h.
Series [2] deals with Staphylococcus aureus. Put plainly: Antibacterial activity against Staphylococcus aureus ATCC 25923 after 24 hrs by microbroth dilution method. It is filed as functional. Conditions: ATCC 25923, 24 h.
The subject of the next series is Bacillus spizizenii. Briefly: Antibacterial activity against Bacillus subtilis ATCC 6633 after 24 hrs by microbroth dilution method. It is filed as functional. Conditions: ATCC 6633, 24 h.
The subject of the next series is Micrococcus luteus. Put plainly: Antibacterial activity against Micrococcus luteus ATCC 4698 after 24 hrs by microbroth dilution method. Conditions: NCTC 2665, 24 h. It is filed as functional.
The next series relates to Cyberlindnera jadinii. Put plainly: Antifungal activity against Candida utilis ATCC 9950 after 24 hrs by microbroth dilution method. Conditions: Williopsis jadinii, ATCC 9950, 24 h. Type of series: functional.
The test system of another series is Aspergillus flavus. Put plainly: Antifungal activity against Aspergillus flavus ATCC 204304 after 24 hrs by microbroth dilution method. Conditions: ATCC 204304, 24 h. Type of series: functional.
Another series concerns Saccharomyces cerevisiae. Put plainly: Antifungal activity against Saccharomyces cerevisiae ATCC 9763 after 24 hrs by microbroth dilution method. It is filed as functional. Conditions: ATCC 9763, 24 h.
The test system of the next series is Candida albicans. Put plainly: Antifungal activity against Candida albicans ATCC 10231 after 24 hrs by microbroth dilution method. Conditions: ATCC 10231, 24 h. Type of series: functional.
The test system of another series is Pichia norvegensis. Briefly: Antifungal activity against Candida mycoderma ATCC 9888 after 24 hrs by microbroth dilution method. Type of series: functional. Conditions: ATCC 9888, 24 h.
The nature of series [3]: Ionization constant, pKa of the compound by UV spectroscopic analysis. Type of series: physicochemical.

Regarding `CCn1cc(C(=O)O)c(=O)c2cc(F)c(N3CCNCC3)cc21` [NORFLOXACIN], the MIC was determined as 2 µg/mL (≈ 6.26 µM) with Escherichia coli; 8 µg/mL (≈ 25.1 µM) in the series with Bacillus; 4 µg/mL (≈ 12.5 µM) against Pseudomonas aeruginosa; 1 µg/mL (≈ 3.13 µM) with Salmonella enterica; 2 µg/mL (≈ 6.26 µM) in the series on Staphylococcus aureus [1]; 2 µg/mL (≈ 6.26 µM) against Staphylococcus aureus [2]. The MIC came to 1 µg/mL (≈ 3.13 µM) in the series on Bacillus spizizenii and 2 µg/mL (≈ 6.26 µM) with Micrococcus luteus.
For `Cc1nc(N2CCCCC2)c([N+](=O)[O-])n1CC(O)CN1CCN(c2cc3c(cc2F)c(=O)c(C(=O)O)cn3C2CC2)CC1` (stereo not given), the MIC in the series with Escherichia coli stood at 128 µg/mL (≈ 214 µM); with Bacillus it was 128 µg/mL (≈ 214 µM); with Pseudomonas aeruginosa, 1 µg/mL (≈ 1.67 µM); against Salmonella enterica, 64 µg/mL (≈ 107 µM); against Staphylococcus aureus [1], 32 µg/mL (≈ 53.5 µM); in the series on Staphylococcus aureus [2], 128 µg/mL (≈ 214 µM). In addition, the MIC was 32 µg/mL (≈ 53.5 µM) in the series on Bacillus spizizenii; 64 µg/mL (≈ 107 µM) against Micrococcus luteus; 32 µg/mL (≈ 53.5 µM) with Cyberlindnera jadinii; 8 µg/mL (≈ 13.4 µM) against Aspergillus flavus; 64 µg/mL (≈ 107 µM) in the series on Saccharomyces cerevisiae; 64 µg/mL (≈ 107 µM) against Candida albicans. For the same molecule, in the series with Pichia norvegensis, the MIC was 64 µg/mL (≈ 107 µM). In series [3], the pKa was found to be 6.9.
As for `O=C(O)c1cn(C2CC2)c2cc(N3CCNCC3)c(F)cc2c1=O` [CIPROFLOXACIN], the MIC against Bacillus, against Pseudomonas aeruginosa, with Salmonella enterica and against Bacillus spizizenii was 1 µg/mL (≈ 3.02 µM) each time.
Take `OC(Cn1cncn1)(Cn1cncn1)c1ccc(F)cc1F` [FLUCONAZOLE]: the MIC worked out at 8 µg/mL (≈ 26.1 µM) against Cyberlindnera jadinii; 256 µg/mL (≈ 836 µM) in the series on Aspergillus flavus; 16 µg/mL (≈ 52.2 µM) in the series on Saccharomyces cerevisiae; 1 µg/mL (≈ 3.27 µM) in the series with Candida albicans; 4 µg/mL (≈ 13.1 µM) in the series with Pichia norvegensis.
`Cc1nc(N2CCOCC2)c([N+](=O)[O-])n1CC(O)CN1CCN(c2cc3c(cc2F)c(=O)c(C(=O)O)cn3C2CC2)CC1` (stereo not given): the MIC came out at 16 µg/mL (≈ 26.7 µM) in the series with Escherichia coli; 4 µg/mL (≈ 6.67 µM) against Bacillus; 0.5 µg/mL (≈ 0.834 µM) with Pseudomonas aeruginosa; 8 µg/mL (≈ 13.3 µM) in the series with Salmonella enterica; 4 µg/mL (≈ 6.67 µM) in the series on Staphylococcus aureus [1]; 16 µg/mL (≈ 26.7 µM) with Staphylococcus aureus [2]. Further, the MIC in the series on Bacillus spizizenii is 8 µg/mL (≈ 13.3 µM); against Micrococcus luteus it was 16 µg/mL (≈ 26.7 µM); with Cyberlindnera jadinii, 4 µg/mL (≈ 6.67 µM); against Aspergillus flavus, 8 µg/mL (≈ 13.3 µM); with Saccharomyces cerevisiae it was 16 µg/mL (≈ 26.7 µM); against Candida albicans, 32 µg/mL (≈ 53.4 µM). The molecule further yielded an MIC against Pichia norvegensis of 128 µg/mL (≈ 213 µM). Moreover, in [3], the pKa amounted to 6.77.
With `O=C(O)c1cn(C2CC2)c2cc(N3CCN(CC4CO4)CC3)c(F)cc2c1=O` (stereo not given), the MIC against Escherichia coli worked out at 1 µg/mL (≈ 2.58 µM); against Bacillus it was 4 µg/mL (≈ 10.3 µM); with Pseudomonas aeruginosa, 2 µg/mL (≈ 5.16 µM); in the series with Salmonella enterica it was 2 µg/mL (≈ 5.16 µM); in the series with Staphylococcus aureus [1] it was 1 µg/mL (≈ 2.58 µM); against Staphylococcus aureus [2] it was 4 µg/mL (≈ 10.3 µM). Besides, the MIC against Bacillus spizizenii was determined as 8 µg/mL (≈ 20.6 µM); against Micrococcus luteus, 2 µg/mL (≈ 5.16 µM); with Cyberlindnera jadinii, 2 µg/mL (≈ 5.16 µM); with Aspergillus flavus it was 1 µg/mL (≈ 2.58 µM); in the series with Saccharomyces cerevisiae it was 1 µg/mL (≈ 2.58 µM); in the series on Candida albicans it was 2 µg/mL (≈ 5.16 µM). Also, the lowest concentration to inhibit growth in the series on Pichia norvegensis (MIC) was 1 µg/mL (≈ 2.58 µM).
In the case of `Cc1nc(N2CCOCC2)c([N+](=O)[O-])n1CC(O)CNC1CCN(c2c(F)cc3c(=O)c(C(=O)O)cn(C4CC4)c3c2Cl)C1` (stereo not given), the MIC with Escherichia coli was 0.5 µg/mL (≈ 0.789 µM); with Bacillus it was 0.25 µg/mL (≈ 0.394 µM); against Pseudomonas aeruginosa, 0.25 µg/mL (≈ 0.394 µM); in the series on Salmonella enterica, 2 µg/mL (≈ 3.15 µM); against Staphylococcus aureus [1] it was 0.25 µg/mL (≈ 0.394 µM); in the series with Staphylococcus aureus [2], 0.5 µg/mL (≈ 0.789 µM). The MIC in the series on Bacillus spizizenii stood at 4 µg/mL (≈ 6.31 µM); in the series with Micrococcus luteus, 2 µg/mL (≈ 3.15 µM); with Cyberlindnera jadinii it was 0.5 µg/mL (≈ 0.789 µM); in the series on Aspergillus flavus, 1 µg/mL (≈ 1.58 µM); against Saccharomyces cerevisiae, 1 µg/mL (≈ 1.58 µM); with Candida albicans it was 2 µg/mL (≈ 3.15 µM). The molecule also gave an MIC in the series on Pichia norvegensis of 16 µg/mL (≈ 25.2 µM). Further, the pKa in series [3] came out at 6.57.
`CCn1cc(C(=O)O)c(=O)c2cc(F)c(N3CCN(CC4CO4)CC3)cc21` (stereo not given): the MIC in the series on Escherichia coli was found to be 2 µg/mL (≈ 5.33 µM); in the series on Bacillus, 4 µg/mL (≈ 10.7 µM); with Pseudomonas aeruginosa, 16 µg/mL (≈ 42.6 µM); in the series on Salmonella enterica, 16 µg/mL (≈ 42.6 µM); with Staphylococcus aureus [1], 2 µg/mL (≈ 5.33 µM); with Staphylococcus aureus [2] it was 8 µg/mL (≈ 21.3 µM). Further, the MIC is 64 µg/mL (≈ 170 µM) against Bacillus spizizenii; 8 µg/mL (≈ 21.3 µM) with Micrococcus luteus; 8 µg/mL (≈ 21.3 µM) with Cyberlindnera jadinii; 1 µg/mL (≈ 2.66 µM) against Aspergillus flavus; 1 µg/mL (≈ 2.66 µM) with Saccharomyces cerevisiae; 4 µg/mL (≈ 10.7 µM) against Candida albicans. The molecule further yielded an MIC against Pichia norvegensis of 1 µg/mL (≈ 2.66 µM).
